The values that follow come from ChEMBL document CHEMBL4421737, “D-3-phosphoglycerate dehydrogenase allosteric inhibitor and use thereof” (2018).

Assay [1] deals with MDA-MB-468. In words: Cytotoxicity against human MDA-MB-468 cells assessed as reduction in cell viability incubated for 72 hrs by MTT assay. It counts as functional, cell-based. The note with it: MDA-MB-468, 72 h.
In assay [2] the test system is MDA-MB-468. The assay is described as follows: Induction of cell cycle arrest in human MDA-MB-468 cells assessed as accumulation at G0/G1 phase at 2.5 to 40 uM incubated for 24 hrs by propidium iodide staining based flow cytometry. In kind it is functional. On the technique in general: A flow cytometer gives signals particle by particle.
For assay [3], the system named is MDA-MB-468. The assay is described as follows: Antitumor activity against human MDA-MB-468 cells xenografted in NOD.CB17-Prkdc scid/J mouse assessed as inhibition of tumor growth at 20 mg/kg/day measured every two days up to 70 days post treatment initiation. In kind it is functional, organism-based. (Xenograft models place foreign cells or tissue in a host animal.)

Assay [4] concerns ZR-75-1. The assay is described as follows: Cytotoxicity against human ZR-75-1 cells assessed as reduction in cell viability incubated for 72 hrs by MTT assay. In kind it is functional, cell-based. The conditions noted are these: ZR-75-1, 72 h. Background: Tetrazolium dyes change colour on reduction, which living cells bring about.
The subject of assay [5] is MCF-10A. The assay is described as follows: Cytotoxicity against human MCF10A cells assessed as reduction in cell viability incubated for 72 hrs by MTT assay. It counts as cell-based.
Assay [6] deals with MDA-MB-231. The assay is described as follows: Cytotoxicity against human MDA-MB-231 cells assessed as reduction in cell viability incubated for 72 hrs by MTT assay. The conditions noted are these: MDA-MB-231, 72 h. In kind it is functional, cell-based.
Assay [7] has as its system HCC70. In words: Cytotoxicity against human HCC70 cells assessed as reduction in cell viability incubated for 72 hrs by MTT assay. It counts as functional, cell-based. The note with it: HCC70, 72 h.
Assay [8] deals with DLD-1. In words: Cytotoxicity against human DLD1 cells assessed as reduction in cell viability incubated for 72 hrs by MTT assay. In kind it is functional, cell-based. The conditions noted are these: DLD-1, 72 h.
The subject of assay [9] is MDA-MB-468. The assay is described as follows: Antitumor activity against human MDA-MB-468 cells xenografted in NOD.CB17-Prkdc scid/J mouse assessed as inhibition of tumor growth at 20 mg/kg/day co-treated with 2.5mg/kg/4day doxorubicin measured every two days up to 11 days post treatment initiation relative to doxorubicin alone. It counts as functional.
For assay [10], the system named is MDA-MB-468. In words: Induction of cell cycle arrest in human MDA-MB-468 cells assessed as accumulation at G0/G1 phase at 10 to 160 uM incubated for 24 hrs by propidium iodide staining based flow cytometry. In kind it is functional.
In assay [11] the test system is MDA-MB-468. The assay is described as follows: Antitumor activity against human MDA-MB-468 cells xenografted in NOD.CB17-Prkdc scid/J mouse assessed as inhibition of tumor growth at 20 mg/kg/day co-treated with 2.5mg/kg/4day doxorubicin measured every two days up to 11 days post treatment initiation relative to compound alone. It counts as functional.
The subject of assay [12] is MCF7. In words: Cytotoxicity against human MCF7 cells assessed as reduction in cell viability incubated for 72 hrs by MTT assay. In kind it is functional, cell-based. The note with it: MCF7, 72 h.

Activity calls are given as the source filed them. The calls are words filed in the database; no cut-off is given here.

The term EC50 denotes the concentration that produces a half-maximal response. On to `O=C(N/N=C/c1cc([N+](=O)[O-])ccc1O)c1ccc(O)cc1O`, for which the EC50 in assay [1] worked out at 7.7 µM; in assay [4] it was 83.4 µM; in assay [5] it was 45.8 µM; in [6], 27.7 µM; in assay [7] it was 10.8 µM; in assay [8], 18.3 µM. The outcome in assay [2] was Active. Also, in assay [3], the TGI entry was “Active”.

Regarding `CCNC(=S)N/N=C/c1ccc(-c2ccc(C(=O)O)c(Cl)c2)o1`, the TGI in assay [9] and in assay [11] was 41% throughout. Moreover, in [10], the outcome was Active. Also, the EC50 was 6.9 µM in [1]; 125 µM in assay [4]; 64.7 µM in assay [5]; above 200 µM in assay [6]; 10 µM in assay [7]; 167 µM in assay [8]. Also, the EC50 in assay [12] was above 200 µM. Further, the TGI result in assay [3] is “Active”.
